Measured values from US20140275281A1, “Geranylgeranyl acetone and derivatives thereof for intranasal administration” (COYOTE PHARMACEUTICALS, INC., priority 2013, published 2014).

Test: pharmacological activity of GGA isomers (test not described)
Details: at low concentrations; statement in words only, no data given

SMILES	pharmacological activity
CC(=O)CC/C=C(/C)CC/C=C(\C)CC/C=C(\C)CCC=C(C)C (single isomer, unassigned) [cis-isomer of GGA, 5Z, 9E, 13E geranylgeranyl acetone]	at best of minimal activity
CC(=O)CC/C=C(\C)CC/C=C(\C)CC/C=C(\C)CCC=C(C)C (single isomer, unassigned) [trans-isomer of GGA, trans-GGA]	pharmacologically active
